Patent US20060205938A1, “Monohydrate solvates of loracarbef” (priority 2002, published 2006)

Legend:
[1] = fine, fluffy powder obtained by the process disclosed in EP 0,369,686; cited from earlier work
[2] = Bulk density of crystalline loracarbef monohydrate; assay type: physicochemical

- bulk density ([2]; crystalline monohydrate prepared from mono N,N-dimethylacetamide monohydrate solvate (Example 2)): greater than 0.6 g/ml
- bulk density ([2]; crystalline monohydrate prepared from mono N-methyl pyrrolidone monohydrate solvate (Example 4)): greater than 0.6 g/ml
- bulk density ([2]; monohydrate prepared from mono N,N-dimethylacetamide monohydrate solvate or mono N-methylpyrrolidone monohydrate solvate): ≥ 0.6 g/mL
Structure (SMILES): N[C@@H](C(=O)N[C@@H]1C(=O)N2C(C(=O)O)=C(Cl)CC[C@H]12)c1ccccc1.O [crystalline loracarbef monohydrate, (6R,7S)-7-[(R)-2-amino-2-phenylacetamido]-3-chloro-8-oxo-1-azabicyclo [4.2.0]oct-2-ene-carboxylic acid, monohydrate]
- density [1]: approximately 0.2 g/ml
